US20200253996A1, “TCTP INHIBITING AGENTS FOR THE TREATMENT OF PROLIFERATIVE DISEASES, INFECTIOUS DISEASES, ALLERGIES, INFLAMMATIONS AND/OR ASTHMA” (UNIVERSITE PARIS-SUD, priority 2017, published 2020)
Read-outs that look alike come from different tables or passages of the source.

Columns and labels:
[1] = biological target: T1, TCTP (Homo sapiens, UniProt P13693); experiment: Interaction with TCTP by surface plasmon resonance (SPR), Biacore T200; assay type: binding; conditions: for Kd: TCTP bonded to chip, Biacore T200
T1 sequence (P13693 1-172): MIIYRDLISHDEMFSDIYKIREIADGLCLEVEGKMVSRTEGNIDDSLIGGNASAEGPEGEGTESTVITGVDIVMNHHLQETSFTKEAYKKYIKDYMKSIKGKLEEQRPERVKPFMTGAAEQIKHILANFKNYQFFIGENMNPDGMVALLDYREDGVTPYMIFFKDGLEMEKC
Experimental: The interaction of the synthesized molecules with TCTP was evaluated by the surface plasmon resonance (SPR) technique using the Biacore T200 apparatus.
A beam of polarized monochromatic light illuminates a glass interface between two media with different refractive indices, since the angle of incidence is greater than the limiting angle, all the light is reflected, a phenomenon known as total internal reflection. There is then no refraction but an electromagnetic component of the light, the evanescent wave propagates over a distance equivalent to its own wavelength, perpendicular to the interface. At the level of the gold leaf located at the interface between the two media, a resonance between the gold plasmons and the evanescent wave is observed, which results in a loss of light energy in the beam reflected at a precise angle called the resonance angle. This angle is sensitive to the refractive index of the medium wherein the evanescent wave propagates.
A continuous measurement of the variations in the angle of refraction is carried out using a micro-refractometer producing a sensorgram that allows the fixation of the molecules injected into the microfluidic cell to be monitored in real time. The resonance signal is expressed in resonance units (RU) and reports what is present at a given time in the microfluidic cell.
Thus, TCTP is bonded to a chip consisting of a layer of dextran on a gold foil, which in turn is placed on a glass plate. This layer is sandwiched between a microfluidic cell and a prism.
The synthesized compounds are passed through the microfluidic cell and their interaction is evaluated through the received SPR signal (Table 1).

[2] = test system: human cancer line HCT116 (colorectal carcinoma); experiment: Cytotoxic activity on HCT116, 72 hours incubation; assay type: cell-based; conditions: for % (viability) at 10 μM: HCT116, 10 μM; for antiproliferative activity profile (in words): compared with sertraline; for IC50: Homo sapiens, HCT-116, HCT116, 72 hours incubation, concentration inducing 50% cell death; for % (viability) at 1 μM: HCT116, 1 μM
Experimental: The cytotoxic activity of the prepared compounds was evaluated on the human cancer line HCT116 (colorectal carcinoma). The selected line was incubated at 37° C. in the presence of one of the prepared compounds added to the culture medium at various concentrations. The inhibitory concentration inducing 50% cell death (IC50) was determined after 72 hours incubation for each compound (Table 1).

[3] = test system: p53 protein; experiment: Overexpression of p53 protein, Western blot; assay type: cell-based; conditions: 10 μM
Experimental: The compound AC014 is capable of inducing overexpression of p53 (FIG. 1).
The Western blot was carried out according to the protocol described in the following article: Amson R, Pece S, Lespagnol A, Vyas R, Mazzarol G, Tosoni D, Colaluca I, Viale G, Rodrigues-Ferreira S, Wynendaele J, Chaloin O, Hoebeke J, Marine J C, Di Fiore P P, Telerman A. Nat Med. 2011 Dec. 11; 18(1):91-9.
The following antibodies were used in the Western blot assay: anti-TCTP antibodies were generated against the whole human-derived TCTP. These polyclonal antibodies were purified by affinity column affinity coupled to TCTP (Agro-Bio). Anti-P53 1C12 mouse antibody (Cell Signaling Technology) was used at a dilution of 1/1000.
Secondary antibodies (antirabbit and antimouse) conjugated to HRP were used at a dilution of 1/5000 to visualize the signals by Western blots.

[4] = test system: human HCT116 cells; experiment: Inhibition of cell growth, CellTiter Glo assay; conditions: for GI50 / CC50: Homo sapiens
Experimental: The viability and proliferation of human HCT116 cells is measured using the “CellTiter Glo®” assay (Promega), which is a luminescent measure of the number of living cells. Sertraline and AC070 were tested at 10 concentrations and results are expressed as GI50, TGI, LC50 and IC50 relative to control cells (DMSO).
The CellTiter-Glo® assay is a homogeneous method for determining the number of viable cells in culture based on a quantification of the ATP present, an indicator of metabolically active cells. The homogeneous test procedure involves the addition of a single reagent (the CellTiter-Glo® reagent) directly to the cultured cells in serum-enriched medium.
The results of the test are reported in the following Tables 2 and 3 (Table 2: sertraline and Table 3: AC070): […]

SMILES	affinity for TCTP (in words) [1]	Kd [1] [µM]	% (viability) at 10 μM [2]	antiproliferative activity profile (in words) [2]	IC50 [2] [µM]	other results
CC(=O)NC1CCC(c2ccc(Br)cc2)c2ccccc21 (mixture of isomers) [AC088, N-(4-(4-bromophenyl)-1,2,3,4-tetrahydronaphthalen-1-yl)acetamide]	–	135 ± 37	10 μM: 33% (viability)	–	–	–
CC(=O)N[C@@H]1CC[C@H](c2ccc(C(=O)O)cc2)c2ccccc21 (relative stereo) [VM055-cis, Cis-4-(4-acetamido-1,2,3,4-tetrahydronaphthalen-1-yl)benzoic acid]	–	176	–	–	–	–
CC(=O)NC1CCC(c2cc(SC3OC(COC(C)=O)C(OC(C)=O)C(OC(C)=O)C3OC(C)=O)c(C(=O)Nc3cccc4cccnc34)c(S[C@@H]3OC(COC(C)=O)[C@@H](OC(C)=O)C(OC(C)=O)C3OC(C)=O)c2)c2ccccc21 (stereo in doubt) [AC249-cis, Cis-(2S,3R,4S,5R,6R)-2-((5-((4S)-4-acetamido-1,2,3,4-tetrahydronaphthalen-1-yl)-2-(quinolin-8-ylcarbamoyl)-3-(((2R,3S,4R,5S,6S)-3,4,5-triacetoxy-6-(acetoxymethyl)tetrahydro-2H-pyran-2-yl)thio)phenyl)thio)-6-(acetoxymethyl)tetrahydro-2H-pyran-3,4,5-triyl triacetate]	–	8 ± 2	–	–	–	–
CC(=O)NC1CCC(c2cccc(S[C@@H]3OC(COC(C)=O)[C@@H](OC(C)=O)C(OC(C)=O)C3OC(C)=O)c2)c2ccccc21 (stereo in doubt) [AC268-cis, Cis-(2S,3R,4S,5R,6R)-2-((3-((4S)-4-acetamido-1,2,3,4-tetrahydronaphthalen-1-yl)phenyl)thio)-6-(acetoxymethyl)tetrahydro-2H-pyran-3,4,5-triyl triacetate]	–	170 ± 31	–	–	–	–
CC(=O)N[C@@H]1CC[C@H](c2ccc(C(=O)NC3OC(COC(C)=O)C(OC(C)=O)C(OC(C)=O)C3OC(C)=O)cc2)c2ccccc21 (stereo in doubt) [VM060-cis, Cis-(2R,3R,4S,5R,6R)-2-(4-acetamido-1,2,3,4-tetrahydronaphthalen-1-yl)benzamido)-6-(acetoxy-methyl)tetrahydro-2H-pyran-3,4,5-triyl triacetate]	–	26 ± 8	10 μM: 15% (viability)	–	–	–
CC(=O)NC1CCC(c2ccc3ccccc3c2)c2ccccc21 (centres unmarked) [AC070, N-(1,2,3,4-tetrahydro-[1,2′-binaphthalen]-4-yl) acetamide]	–	–	–	–	–	cytotoxicity compared with sertraline [4]: less cytotoxic than sertraline; activity on cell growth compared with sertraline ([4]; HCT116): slightly less active than sertraline; TGI50 1 ([4]; HCT116, CellTiter Glo, determination 1): 1.48 µM; TGI50 2 ([4]; HCT116, CellTiter Glo, determination 2): 1.44 µM; TGI50 3 ([4]; HCT116, CellTiter Glo, determination 3): 1.41 µM; TGI50 Mean ([4]; HCT116, CellTiter Glo, mean): 1.44 µM; TGI50 Median ([4]; HCT116, CellTiter Glo, median): 1.44 µM; GI50 ([4]; HCT-116, read-out: GI50 1): 909 nM; GI50 ([4]; HCT-116, read-out: GI50 2): 881 nM; GI50 ([4]; HCT-116, read-out: GI50 3): 878 nM; GI50 ([4]; HCT-116, read-out: GI50 Mean): 890 nM; GI50 ([4]; HCT-116, read-out: GI50 Median): 889 nM; CC50 ([4]; HCT-116, read-out: LC50 1): 2340 nM; CC50 ([4]; HCT-116, read-out: LC50 2): 2300 nM; CC50 ([4]; HCT-116, read-out: LC50 3): 2200 nM; CC50 ([4]; HCT-116, read-out: LC50 Mean): 2280 nM; CC50 ([4]; HCT-116, read-out: LC50 Median): 2280 nM; GI50 ([4]; HCT-116, read-out: cell growth inhibition constant GI50): 889 nM; CC50 ([4]; HCT-116, read-out: lethal concentration LC50): 2200 nM
c1ccc2c(c1)CCCC2c1ccc2[nH]ccc2c1 (centres unmarked) [AC082, 5-(1,2,3,4-tetrahydronaphthalen-1-yl)-1H-indole]	–	123 ± 33	33%	–	–	% (viability) at 1 μM [2]: 9 ± 1%
COc1ccc2c(c1)CCCC2c1ccc(Cl)c(Cl)c1 (centres unmarked) [AC095, 1-(3,4-dichlorophenyl)-6-methoxy-1,2,3,4-tetrahydronaphthalene]	–	150	10 μM: 40% (viability)	–	–	–
COc1ccc2c(c1)CCCC2c1cccc(Cl)c1 (centres unmarked) [AC101, 1-(3-chlorophenyl)-6-methoxy-1,2,3,4-tetrahydronaphthalene]	–	145 ± 34	–	–	7 ± 0.4	–

Further lines, with some results ahead:

affinity for TCTP (in words) [1]	Kd [1] [µM]	SMILES	% (viability) at 10 μM [2]	antiproliferative activity profile (in words) [2]	IC50 [2] [µM]	other results
excellent affinity	16 ± 11	CC(=O)NC1CCC(c2cccc(I)c2)c2ccccc21 (mixture of isomers) [AC087, N-(4-(3-iodophenyl)-1,2,3,4-tetrahydronaphthalen-1-yl)acetamide]	10 μM: 33% (viability)	identical to that of sertraline	–	–
excellent affinity	28.5 ± 10	CC(=O)N[C@@H]1CC[C@H](c2ccc(C(=O)OC(C)C)cc2)c2ccccc21 (relative stereo) [AC056, Cis-isopropyl 4-(4-acetamido-1,2,3,4-tetrahydronaphthalen-1-yl)benzoate]	–	identical to that of sertraline	17 ± 3	–
excellent affinity	7 ± 3	c1ccc2c(c1)CCCC2c1ccc2ccccc2c1 (centres unmarked) [AC014, 1,2,3,4-tetrahydro-1,2′-binaphthalene]	–	identical to that of sertraline	8 ± 1	expression of the p53 protein [3]: induces; induction of p53 compared to sertraline [3]: more pronounced
excellent affinity	29 ± 7	CC(C)OC(=O)c1ccc(C2CCCc3ccccc32)cc1 (centres unmarked) [AC034, Isopropyl 4-(1,2,3,4-tetrahydronaphthalen-1-yl)benzoate]	–	identical to that of sertraline	25 ± 9	–
excellent affinity	59 ± 30	Ic1cccc(C2CCCc3ccccc32)c1 (centres unmarked) [AC041, 1-(3-iodophenyl)-1,2,3,4-tetrahydronaphthalene]	–	identical to that of sertraline	9 ± 1.2	–
excellent affinity	24 ± 16	c1ccc2c(c1)OCCC2c1ccc2ccccc2c1 (centres unmarked) [AC069, 4-(naphthalen-2-yl)chroman]	33%	identical to that of sertraline	–	% (viability) at 1 μM [2]: 0%
excellent affinity	30	c1ccc2c(c1)SCCC2c1ccc2ccccc2c1 (centres unmarked) [AC085, 4-(naphthalen-2-yl)thiochroman]	–	identical to that of sertraline	25 ± 1	–
excellent affinity	14 ± 7	Clc1ccc(C2CCCc3ccccc32)cc1Cl (centres unmarked) [AC096, 1-(3,4-dichlorophenyl)-1,2,3,4-tetrahydronaphthalene]	–	identical to that of sertraline	–	% (viability) at 1 μM [2]: 1 μM: 29 ± 3%.
